Laboratory results taken from patent US12667546B2, “Methods for manipulating cell state transitions in cancer” (AGENCY FOR SCIENCE, TECHNOLOGY AND RESEARCH, priority 2018, dated 2026).
“Also recorded” adds a separate entry of the source. Where two headings read alike, the source gives them in different places.

Key:
SUM159 [1] = experiment: Mammosphere assay, SUM159; format: cell-based, human
Experimental: (§1) For mammosphere culture, cells were seeded onto 96-well ultralow-adherence plates at 700 cells/well in Mammocult medium (Stem Cell Technologies) supplemented with 4 μg/ml heparin, 0.5 μg/ml hydrocortisone and 1% methylcellulose. Spheres (>100 μm) were counted at 7-10 days later.

SUM159 [2] = experiment: Flow cytometry of CD44 and CD24, SUM159; format: cell-based, human
Experimental: (§2) Cells were harvested as per FACS and resuspended in 100 μl of solution containing CD24-PE and CD44-APC (BD-Biosciences) antibodies diluted in 2% FBS in PBS (1:40 dilution). Cells were stained for 45 min with vortexing every 10 min to ensure even staining. After antibody incubation, cells were washed once and resuspended in 300 μl 2% FBS in PBS. Cells were then filtered through a 40 μm strainer and analyzed on BD LSR Fortessa X-20 Cell Analyzer.

SUM159 [3] = experiment: Expression of EMT and lineage markers in SUM159; format: cell-based, human
Experimental: (§3) Cells were rinsed twice in ice-cold PBS. Total RNA was extracted using Trizol (Invitrogen) and column-purified with RNeasy kits (Qiagen). cDNA synthesis was performed with 500 ng of total RNA at 37° C. for 2 h using the SuperScript III First-Strand Synthesis System (Thermo Fisher Scientific), and subsequently diluted 5-fold. mRNA levels were measured with gene-specific primers listed below using the ABI Prism 7900HT Sequence Detection System 2.2 (Applied Biosystems). Results were normalized to GAPDH and analyzed using SDS 2.2 software.
Cells were harvested and scraped from culture dishes in ice-cold PBS. They were then centrifuged at 12000 rpm for 5 min at 4° C. The pellets were then snap frozen in liquid nitrogen or lysed in ice-cold RIPA lysis buffer (Thermo Scientific) and left on ice for 30 min. Subsequently, the lysates were centrifuged at 12000 rpm for 10 min at 4° C. The supernatants were then aspirated and placed in fresh tubes. Protein concentrations were determined using Coomaisse Blue. 50-80 μg total protein was mixed with NuPAGE™ LDS sample buffer and heated at 70° C. for 10 min. Samples were loaded into NuPAGE™ 4-12% Bis-Tris gels (precast polyacrylamide gel; Invitrogen™). Gel electrophoresis was done at 200V for 1.5 h and then blotted onto nitrocellulose membranes (Trans-Blot Turbo™ transfer pack; Bio-Rad). […]

NAMEC8 [4] = experiment: Mammosphere assay, NAMEC8; format: cell-based, human; conditions: NAMEC8, pre-treated cells
Experimental: as §1

NAMEC8 [5] = experiment: Expression of EMT and lineage markers (qRT-PCR, immunoblot, immunofluorescence) in NAMEC8; format: cell-based, human; conditions: for expression of EMT and basal/luminal markers: transcript and protein
Experimental: as §3
(§4) Cells were harvested and scraped from culture dishes in ice-cold PBS. They were then centrifuged at 12000 rpm for 5 min at 4° C. The pellets were then snap frozen in liquid nitrogen or lysed in ice-cold RIPA lysis buffer (Thermo Scientific) and left on ice for 30 min. Subsequently, the lysates were centrifuged at 12000 rpm for 10 min at 4° C. The supernatants were then aspirated and placed in fresh tubes. Protein concentrations were determined using Coomaisse Blue. 50-80 μg total protein was mixed with NuPAGE™ LDS sample buffer and heated at 70° C. for 10 min. Samples were loaded into NuPAGE™ 4-12% Bis-Tris gels (precast polyacrylamide gel; Invitrogen™). Gel electrophoresis was done at 200V for 1.5 h and then blotted onto nitrocellulose membranes (Trans-Blot Turbo™ transfer pack; Bio-Rad). The membranes were blocked with 5% skimmed milk in Tris-buffered saline (TBS; 1st BASE) with 0.1% Tween-20 (Santa Cruz), and then incubated with primary antibodies overnight at 4° C. Thereafter, the membranes were incubated with a horseradish peroxidase (HRP)-conjugated secondary antibody at room temperature for one hour. Finally, the immunoreactive proteins were visualized by using an enhanced chemiluminescent (ECL) reagent (Thermo Scientific, 34075) with the Chemidoc™ Imager (Bio-Rad, 17001401).
Cell cultures were fixed in 4% paraformaldehyde and permeabilized with 0.25% Triton X-100, followed by blocking with 1% bovine serum albumin in PBST. Cells were incubated in specific primary antibodies, followed by the appropriate secondary antibodies conjugated with Alexa Fluor-488 or -594 (Molecular Probes). Cell nuclei were then stained with DAPI and then viewed and imaged with an Axio Observer D1 epifluorescence microscope with a built-in AxioCamMR3 camera (Zeiss), using the optimal filters and 100-200× magnifications.

[6] = tested on: H3K14ac, H3K18ac and H3K27ac in NAMEC8; experiment: Immunoblot of histone acetylation marks; format: cell-based, human
Experimental: as §4

NAMEC8-Ras = experiment: Tumor formation of pre-treated NAMEC8-Ras injected subcutaneously; format: in vivo, NSG mice; conditions: pre-treated cells, 11 weeks
NAMEC8 [7] = experiment: Flow cytometry of CD44 and CD24, NAMEC8; format: cell-based, human
Experimental: as §2

NAMEC8 [8] = experiment: Cell morphology of treated NAMEC8; format: cell-based, human; conditions: bexarotene, TTNPB, SGC-CBP30, UNC0642, A-485 1 μM, LLY-283, GSK591 20 nM, C-IN-1 500 nM
Experimental: Human mammary epithelial cell lines (HMLE) were generated as described and immortalized using retroviral vectors to express the catalytic subunit of the human telomerase enzyme, hTERT and the SV-40 Large T antigen. NAMEC8 was generated as described. Briefly, HMLE cells were grown to 50% confluency, followed by differential trypsinization for 1 minute with 0.05% trypsin. Detached cells were carefully collected and re-plated at approximately 200 cells per well of a 24-well plate. Upon expansion, wells were screened for populations that were morphologically mesenchymal and can be stably propagated. Clonal and non-clonal NAMEC cell lines were generated. NAMEC8 is a non-clonal line derived from at least 200 mesenchymal cells. HMLE cells and NAMECs were maintained in MEGM (Lonza).

metastatic TNBC = conditions: cited from earlier work
[9] = in vivo; cited from earlier work
MCF7-Slug+Sox9 tumors = experiment: Orthotopic MCF7-Slug+Sox9 EMT-induced metastasis model; format: in vivo, NSG mice; conditions: etomoxir 20 mg/kg per day i.p. plus doxycycline
Experimental: Orthotopic tumor transplantations of MCF7-Slug+Sox9 cells labeled with the tdTomato fluorescent protein were carried out as described previously. Briefly, 1×10^6 cells were resuspended in 30 μl of media containing 50% matrigel and injected into mammary fat pads of NSG mice. Mice were randomly divided into 3 groups (Control, DOX and Etomoxir+DOX). Mice were administered vehicle control (0.9% w/v NaCl) or etomoxir (20 mg/kg) via i.p. injections daily for 3 weeks. Doxycycline was then administered through drinking water for 2 weeks. Mice were sacrificed 10 weeks after doxycycline treatment was stopped and analyzed for lung metastases under a fluorescence microscope. The tumor sections were fixed overnight in 4% paraformaldehyde, immersed in 70% ethanol, and sent to the Advanced Molecular Pathlogy Lab, IMCB for paraffinization. For IF staining, slides were deparaffinized and rehydrated in PBS. The tissues were surrounded with a hydrophobic barrier using a barrier pen and blocked with the blocking buffer (1% bovine serum albumin; BSA, 1% horse serum and 0.2% Triton X-100 in PBS) for 1 hour. They were then washed with PBS and incubated in specific primary antibodies at 4° C. overnight. […] The fluorescence image analysis and the fluorescence overlay image were obtained with the Axio Vision Rel. […]

SUM159 [10] = experiment: Fatty acid β-oxidation assay (rate of FAO); format: cell-based, human; conditions: etomoxir alone or together with bexarotene
Experimental: FAO rate was measured using the mitochondrial stress test on the XF96 analyzer (Seahorse Bioscience) according to manufacturer's instructions. Cells were seeded in 96well XF96 cell culture plates at a density of 9000 cells/well in complete media. Cells were then incubated with XF modified DMEM assay medium (Seahorse Bioscience) supplemented with 1 mM glutamine, 0.5 mM glucose, 1% FBS and 0.5 mM carnitine the next day for 18 h. On the day of the assay, cells were incubated with FAO assay medium (KHB: 111 mM NaCl, 4.7 mM KCl, 1.25 mM CaCl2), 2 mM MgSO4, 1.2 mM NaH2 PO4 supplemented with 2.5 mM glucose, 0.5 mM carnitine, 5 mM HEPES, adjusted to pH7.4) 45 min prior to the assay in a non-CO2 incubator. Seahorse XF Cell Mito Stress Test compounds (2 μM oligomycin, 2 μM FCCP, 2 μM rotenone). For inhibition of FAO, etomoxir (40 μM) was added 15 min prior to the assay. Just prior to starting the assay, XF Palmitate-BSA FAO substrate or BSA was added to the cells. Plate was then put into the XF96 analyzer and the XF Cell Mito Stress Test was run using the recommended protocol. Rate of FAO was calculated by the difference in maximal respiration when Palmitate-BSA FAO substrate was supplemented relative to BSA control.

A549 = experiment: TGFβ-induced EMT in lung cancer cell line; format: cell-based, human
Experimental: as §4

MCF7-Slug+Sox9 = experiment: Doxycycline-induced EMT in MCF7-Slug+Sox9 cells; format: cell-based, human
Experimental: (§5) HMLE-Twist-ER cells were generated as described. For EMT-induction, 100 nM of 4-hydroxytamoxifen in ethanol was added to the culture medium every 48 h to induce Twist expression. Control cells were treated with ethanol. MCF7-Slug+Sox9 cells were generated as previously described. HMLE-Zeb1 cells were generated by infection with FUW-Zeb1 and rTTA. Doxycycline was added to the culture medium every 48 h to induce Zeb1 expression. To generate tumorigenic cells from NAMEC8, cells were infected with pWZL-Blast-Ras. MCF7, MCF7-Ras, SUM159 were maintained as previously described. All cell cultures were maintained at 37° C. with 5% CO2.
as §3
(§6) Cells were harvested and scraped from culture dishes in ice-cold PBS. They were then centrifuged at 12000 rpm for 5 min at 4° C. […] Protein concentrations were determined using Coomaisse Blue. […]

HMLE-Twist ER = experiment: 4-OHT-induced EMT in HMLE-Twist ER cells; format: cell-based, human
Experimental: as §5, §3, §6

## COc1ccc(CCc2nc3cc(-c4c(C)noc4C)ccc3n2C[C@H](C)N2CCOCC2)cc1Cl [SGC-CBP30]
SUM159 [1]
  mammosphere formation: significant reduction in spheres formation and spheres size
SUM159 [2]
  CD44/CD24 surface expression: slight decrease in CD44 expression, with a population of cells gaining the expression of CD24; also recorded: decreased CD44 expression and higher CD24 expression
SUM159 [3]
  expression of EMT and lineage markers / epithelial features: increasing epithelial features and decreasing stemness in SUM159
NAMEC8 [4]
  mammosphere formation: significantly reduce the size and number of spheres formed
NAMEC8 [5]
  expression of EMT and basal/luminal markers: significantly increased epithelial marker E-cadherin expression, as well as downregulated several mesenchymal markers, fibronectin, ZEB1 and SLUG; also recorded: most drastic change as compared to the other compounds
[6]
  histone acetylation marks: all the acetylation marks were decreased but to a lesser extent compared to A-485 treatment
NAMEC8-Ras
  tumor formation / tumor size: significantly smaller tumors after 11 weeks; also recorded: significantly reduced tumor formation in mice
NAMEC8 [7]
  CD44/CD24 surface expression: population of cells with lower CD44 expression was observed; also recorded: Population of cells with decreased CD44 expression was observed
NAMEC8 [8]
  cell morphology: obvious change in cell morphology from scattered, spindle- and fibroblastic-like cells, to tight clusters of epithelial islands; also recorded: resulted in epithelial-like morphology

## Pembrolizumab: immune checkpoint monotherapy in Keynote 012 and Keynote 086 studies
Metastatic TNBC; Keynote 012, phase 1, monotherapy
  response rate: 18%
Metastatic TNBC; Keynote 086, phase 2, monotherapy
  response rate: 5%

## CNC(=O)Nc1ccc2c(c1)CC[C@@]21OC(=O)N(CC(=O)N(Cc2ccc(F)cc2)[C@@H](C)C(F)(F)F)C1=O [A-485]
NAMEC8 [5]
  expression of EMT and basal/luminal markers: upregulation of E-cadherin protein expression, with slight decrease in the mesenchymal markers
NAMEC8-Ras
  tumor formation / tumor size: Tumor formation was still observed
NAMEC8 [7]
  CD44/CD24 surface expression: obvious increase in CD44 expression; also recorded: higher CD44 expression
NAMEC8 [8]
  cell morphology: tight clusters of epithelial islands were observed; also recorded: Epithelial-like morphology was observed

## CCOC(=O)[C@@]1(CCCCCCOc2ccc(Cl)cc2)CO1 [etomoxir]
[9]
  clinical outcome / toxicity: failed clinical trials due to liver toxicity
MCF7-Slug+Sox9 tumors
  EMT markers in primary tumors (E-cadherin, Vimentin): retention of the epithelial features
SUM159 [10]
  FAO activity: completely inhibited FAO activity
A549
  TGFβ-induced EMT: blocking TGFβ-induced EMT
MCF7-Slug+Sox9
  Slug+Sox9-induced EMT: blocked Slug+Sox9-induced EMT
NAMEC8 [5]; drugs removed for at least seven days
  MET phenotype: induction and durability after drug withdrawal: unable to do so
HMLE-Twist ER
  4-OHT-induced EMT: dramatically block this transition
